Assay results as given in ChEMBL document CHEMBL3244328, “trans-2,3b,4,5,7,8b,9,10-Octahydronaphtho[1,2-c:5,6-c']dipyrazole, a new orally active antiallergic compound” (1978).
Active and inactive are the calls of the source. The calls are words filed in the database; no cut-off is given here.

Columns and labels:
Type in all cases: functional
Rattus norvegicus [1] = assay: Antiallergic activity in Sprague-Dawley rat assessed as inhibition of mouse antiserum-induced passive cutaneous anaphylaxis at 100 mg/kg, po administered 1 hr before antiserum challenge measured after 3 hrs by Evans blue staining relative to control
Rattus norvegicus [2] = assay: Antiallergic activity in po dosed Sprague-Dawley rat assessed as inhibition of mouse antiserum-induced passive cutaneous anaphylaxis administered 1 hr before antiserum challenge measured after 30 mins by Evans blue staining
Rattus norvegicus [3] = assay: Antiallergic activity in Sprague-Dawley rat assessed as inhibition of mouse antiserum-induced passive cutaneous anaphylaxis at 25 mg/kg, po administered 1 hr before antiserum challenge measured after 30 mins by Evans blue staining relative to control; conditions: read-out: INH
Rattus norvegicus [4] = assay: Antiallergic activity in Sprague-Dawley rat assessed as inhibition of mouse antiserum-induced passive cutaneous anaphylaxis at 200 mg/kg, po administered 1 hr before antiserum challenge measured after 6 hrs by Evans blue staining relative to control; conditions: read-out: INH
Rattus norvegicus [5] = assay: Antiallergic activity in Sprague-Dawley rat assessed as inhibition of mouse antiserum-induced passive cutaneous anaphylaxis at 50 mg/kg, po administered 1 hr before antiserum challenge measured after 30 mins by Evans blue staining relative to control; conditions: read-out: INH
Rattus norvegicus [6] = assay: Antiallergic activity in Sprague-Dawley rat assessed as inhibition of mouse antiserum-induced passive cutaneous anaphylaxis at 5 to 6 times ED50 mg/kg, po administered 1 hr before antiserum challenge measured after 30 mins by Evans blue staining relative to control

**Q.** With `c1ccc(-n2ncc3c2[C@H]2CCc4cnn(-c5ccccc5)c4[C@@H]2CC3)cc1` as the compound, how does the inhibition (Rattus norvegicus [1]) read?
**A.** inactive

**Q.** `Cn1cc2c(n1)[C@H]1CCc3cn(C)nc3[C@@H]1CC2` was tested. Which inhibition (Rattus norvegicus [1]) did it give?
**A.** inactive

**Q.** What does the source list for `c1[nH]nc2c1CC[C@H]1c3n[nH]cc3CC[C@H]21`?
**A.** ED50 (Rattus norvegicus [2]): 35 mg/kg; inhibition in vivo at 25 mg/kg (Rattus norvegicus [3]): 33%; inhibition in vivo at 200 mg/kg (Rattus norvegicus [4]): 63%; inhibition in vivo at 50 mg/kg (Rattus norvegicus [5]): 61%; inhibition in vivo at 100 mg/kg (Rattus norvegicus [1]; read-out: INH): 65%; inhibition (INH) (Rattus norvegicus [6]): 60%
